By logP is commonly meant the decadic logarithm of the partition coefficient of the neutral form, usually between octanol and water. In general, logD refers to the decadic logarithm of the distribution of all forms, ionised or not, between an organic phase and buffer at a given pH.

Our source for the logP and logD values is the SangsterLogP compilation.

Data set [1] can be described thus: method code SF-HPLC, from DOI: 10.1016/0168-3659(92)90067-2.
A short description of data set [2]: method code SF-RC, from DOI: 10.1021/jm050166g.s001, PMID: 16162001. Particulars: pH 7.4.
Data set [3] in a line: method code SF-HPLC, from DOI: 10.1016/s0223-5234(02)01360-0, PMID: 12008054. Particulars: pH 7.4.
Assay in data set [4]: not given
This is another data set of the same source.

Data set [5] in a line: method code SF-RC, from DOI: 10.1021/es60172a005, PMID: 22280000.
Data set [6] in a line: method code SF-HPLC, from DOI: 10.1016/j.ijpharm.2010.12.025, PMID: 21185925.
The nature of data set [7]: method code SF-HPLC, from DOI: 10.1002/jps.23218, PMID: 22644947. Particulars: pH 7.0.
Assay in data set [8]: not given
The source holds these as a separate data set.

A short description of data set [9]: method code SF-HPLC, from DOI: 10.1002/jps.23140, PMID: 22499243. Particulars: pH 7.4.
Assay in data set [10]: not given
This is another data set of the same source.

A short description of data set [11]: method code SF, from DOI: 10.1111/j.1365-2958.1992.tb00853.x, PMID: 1640833.
Data set [12] in a line: method code SF-RC, from DOI: 10.1111/j.2042-7158.1981.tb11724.x.
The nature of data set [13]: method code SF-AS, from DOI: 10.1021/jm00371a026, PMID: 6425501. Particulars: pH 7.4.
Data set [14] is described as follows: method code SF-AS, from DOI: 10.1002/jps.2600720808, PMID: 6620139.
A short description of data set [15]: method code SF, from DOI: 10.1021/jm300192x, PMID: 22519985. Particulars: pH 7.4.
Data set [16] can be described thus: method code SF-AS, from DOI: 10.1016/0304-4165(87)90236-4, PMID: 2889474.
Data set [17] in a line: method code SF-HPLC, from DOI: 10.1016/j.ejps.2012.04.024, PMID: 22609526.
Assay in data set [18]: not given
This is another data set of the same source.

A short description of data set [19]: method code SF-HPLC, from Suo, X.; Li, M.; Wang, Y.; Zhu, S. (2010). Study on oil-water partition coefficient of hydroxycamptothecin and its absorption efficiency in rat small intestine. Chinese Traditional Patent Medicine, …. Particulars: pH 7.4.
Assay in data set [20]: not given
This is another data set of the same source.

Assay in data set [21]: not given
This is another data set of the same source.

Data set [22] in a line: method code SF-HPLC, from DOI: 10.1002/jps.23034, PMID: 22213574. Particulars: pH 7.4.
A short description of data set [23]: method code SF-AS, from DOI: 10.1021/jm300468t, PMID: 22574992. Particulars: pH 9.0.
Data set [24] is described as follows: method code SF-AS, from DOI: 10.1021/jm9807104, PMID: 10514282. Particulars: pH 7.0.
Assay in data set [25]: not given
This is another data set of the same source.

Data set [26] can be described thus: method code SF-HPLC, from DOI: 10.1016/j.jpba.2007.09.019, PMID: 17988818.
Data set [27] in a line: method code SF-AS, from DOI: 10.1111/j.2042-7158.1983.tb02957.x, PMID: 6135774.
A short description of data set [28]: method code G-RC, from DOI: 10.1016/0300-483x(85)90031-9, PMID: 4049435.
Data set [29] is described as follows: method code SF-HPLC, from Pan, J.; Wu, Z.; Hui, A.; Tao, M. (2011). Determination of partition coefficients of ginkgolide beta and its prodrug. Shizhen Guo Yi Guo Yao, 22(10)2397-2400.
Assay in data set [30]: not given
The source holds these as a separate data set.

Data set [31] can be described thus: method code SF-AS, from DOI: 10.1021/jm00392a004, PMID: 3625703. Particulars: pH 6.9.
Assay in data set [32]: not given
This is another data set of the same source.

Assay in data set [33]: not given
The source holds these as a separate data set.

The nature of data set [34]: method code SF-RC, from DOI: 10.1002/jlcr.1930.
Assay in data set [35]: not given
This is another data set of the same source.

Assay in data set [36]: not given
The source holds these as a separate data set.

Assay in data set [37]: not given
The source holds these as a separate data set.

Non-standard residues stand in square brackets, D forms with d. Residues, ends and D or L forms follow the SMILES beside them.

Turning to `CC(=O)N[C@H](Cc1ccc(O)cc1)C(=O)N[C@H](Cc1ccc(O)cc1)C(N)=O` (Ac-[dY]-[dY]-NH2), the log partition coefficient (logP) in [1] was -0.16.

In [2], `CN(C)c1ccc(C=Cc2ccc(OCC(CO)CF)cc2)cc1` (stereo not drawn) came in with a logD of 3.14.

Take `O[C@H](CNC[C@H](O)[C@H]1COc2ccccc2O1)[C@@H]1COc2ccccc2O1`: the lipophilicity (logP) came out at 2.45.

As to `COc1cc2nc(N3CCN(C(=O)C4CCCO4)CC3)nc(N)c2cc1OC` (stereo not drawn), the logD in data set [3] was determined as 1.14.

In data set [4], `COc1cc(NC(C)=O)c(I)cc1C(=O)NCCCCN1CC2CCC1C2` (stereo not drawn) registered a logP of 0.8.

In data set [5], `Cc1ccc2cc3c(ccc4ccccc43)c3c2c1CC3` displayed a logP of 6.42.

The molecule `CCCc1nc(C[C@H](NC(=O)[C@@H]2CCC(=O)N2)C(=O)N2CCC[C@H]2C(N)=O)c[nH]1` showed a logP in data set [6] of -1.07.

`CCOC(=O)N(CCN(C(=O)OCC)C(=O)OCC)CCN(C(=O)OCC)C(=O)OCC` had a logD in [7] of 2.3.

As for `COc1cc2c(cc1O)CC[C@@H]1C2CC[C@]2(C)[C@@H](O)CC[C@@H]12` (stereo in doubt), the logP in [8] is 2.86.

Regarding `CCCCCCCCCCCCOP1(=O)OCC(Cn2ccc(N)nc2=O)O1` (stereo not drawn), the log distribution coefficient (logD) in [9] worked out at 3.89.

Consider `CSc1nc(Nc2ccccc2)c2cnn(CCCl)c2n1`, for which the log partition coefficient (logP) in [10] amounted to 5.49.

`C[C@]12CCC(=O)C[C@@H]1CC[C@@H]1[C@@H]2CC[C@]2(C)C(=O)CC[C@@H]12` showed a lipophilicity (logP) in data set [11] of 3.6.

The molecule `CCC(=O)O[C@H]1CC[C@H]2[C@@H]3CCC4=CC(=O)CC[C@]4(C)[C@H]3CC[C@]12C` showed a logP in data set [12] of 3.72.

As for `CO[C@@]12[C@H](COC(N)=O)C3=C(C(=O)C(C)=C(Nc4cccnc4)C3=O)N1C[C@@H]1N[C@@H]12`, the pH-dependent lipophilicity (logD) in [13] is 0.52.

`C[C@]12CCC(=O)C=C1CC[C@@H]1[C@@H]2CC[C@@]2(C)[C@H]1CC[C@]2(C)O` gave a log partition coefficient (logP) in data set [14] of 3.36.

Molecule `OCC1OC(c2ccc(N3CCc4ccccc43)cc2)C(O)C(O)C1O` (stereo not drawn) had a logD in data set [15] of 2.3.

For the molecule `C=C1C(=O)OC2CC(C)C3C=CC(=O)C3(C)C(OC(=O)C=C(C)C)C12` (stereo not drawn), in [16], the logP was found to be 1.47.

In data set [17], `O=c1c(O[C@@H]2OC[C@@H](O)[C@H](O)[C@H]2O)c(-c2ccc(O)c(O)c2)oc2cc(O)cc(O)c12` gave a logP of 1.75.

Consider `Cc1cc2c(-c3ccccn3)c[nH]c2c(C(=O)Nc2ncccc2C)n1`, for which the logP in [18] amounted to 4.7.

Regarding `CC[C@@]1(O)C(=O)OCc2c1cc1n(c2=O)Cc2cc3cc(O)ccc3nc2-1`, the logD in data set [19] came out at 1.33.

In the case of `CCOc1ccccc1OCCN[C@H](C)Cc1ccc(OC)c(S(N)(=O)=O)c1`, the log partition coefficient (logP) in [20] came to 2.2.

`N#CCNC(=O)[C@@H]1CCCC[C@H]1C(=O)N1CCN(c2ccccc2)CC1`: the logP in [21] worked out at 1.8.

`O=S(=O)(c1ccc(C(F)(F)F)cc1)N1c2cc(F)c(F)cc2-c2[nH]ncc2C1C1CC1` (stereo not drawn) returned a log distribution coefficient (logD) in [22] of 3.91.

Take `Cc1c2c3cc(NC(=O)CNC(=O)CN)ccc3nc-2n(C)c2ccccc12`: in [23], the pH-dependent lipophilicity (logD) was determined as 0.85.

Regarding `COC(=O)C(C)NP(=O)(Oc1cccc(C(F)(F)F)c1)OC1C=CC(n2cc(C)c(=O)[nH]c2=O)O1` (stereo not drawn), the pH-dependent lipophilicity (logD) in data set [24] was 1.57.

As to `CN(C)c1ccc(-c2ccc3cc(OCC(O)CF)ccc3n2)cc1` (stereo not drawn), the logP in data set [25] is 3.03.

On to `COc1cc(C=Cc2cc(/C=C/c3ccc(O)c(OC)c3)n[nH]2)ccc1O`, for which the log partition coefficient (logP) in data set [26] was 1.78.

For the molecule `COc1cc(N)c(Cl)cc1C(=O)NC1CCN(Cc2ccccc2)CC1`, the logP in [27] was determined as 2.99.

In data set [28], `O=[N+]([O-])c1c2ccccc2c2ccc3cccc4ccc1c2c43` had a log partition coefficient (logP) of 5.44.

On to `CC1C(=O)OC2C(O)C34C5CC(C(C)(C)C)C36C(OC(=O)C6O)OC4(C(=O)O5)C12O` (stereo not drawn), for which, in data set [29], the logP was 0.59.

In [30], `CCCCC[C@H](O)/C=C/[C@H]1[C@H](O)CC(=O)[C@@H]1C/C=C\CCCC(=O)O` returned a lipophilicity (logP) of 2.9.

In turn, `CCCCCCCCCC1(c2ccncc2)CCC(=O)NC1=O` (stereo not drawn) had a logD in data set [31] of 4.64.

In the case of `CC(C)CC(O)C(O)C(CC1CCCCC1)NC(=O)OC(C)(C)C` (stereo not drawn), the lipophilicity (logP) in data set [32] was 3.98.

In data set [33], `C[C@H]1[C@H](N2CCS(=O)(=O)CC2)O[C@@H]2O[C@@]3(C)CC[C@H]4[C@H](C)CC[C@@H]1[C@@]24OO3` returned a logP of 2.49.

The molecule `COc1cc2c(cc1OS(N)(=O)=O)CC[C@@H]1[C@@H]2CC[C@]2(C)[C@@H](OS(N)(=O)=O)CC[C@@H]12` yielded a lipophilicity (logP) in data set [34] of 2.25.

The molecule `CO[C@H]1C[C@]2(C)[C@@H](O)CC[C@H]2[C@@H]2CCc3cc(O)ccc3[C@H]21` had a log partition coefficient (logP) in data set [35] of 2.72.

In data set [36], `CN(C)CCO[C@]1(c2ccccc2)C[C@H]2CC[C@]1(C)C2(C)C` registered a logP of 5.9.

In [37], `O=C(NN(C(=O)c1ccccc1)c1ccccc1)c1ccccc1` displayed a logP of 3.32.
